Assay results: patent US6756382B2, “Amide substituted imidazoquinolines” (3M Innovative Properties Company, priority 1999, dated 2004)
Counter-ions that a name gives are not always drawn.

| melting point | SMILES |
| --- | --- |
| 173 to 174.9 °C | COCCc1nc2c(N)nc3ccccc3c2n1CCCCNC(=O)c1ccc(-n2cccc2)cc1 [Example 60, N^1-{4-[4-Amino-2-(2-methoxyethyl)-1H-imidazo[4,5-c]quinolin-1-yl]butyl}-4-(1-pyrrolyl)benzamide] |
| 239 to 240.1 °C | Cc1nc2c(N)nc3ccccc3c2n1CCCNC(=O)C(C)C [Example 207, N-[3-(4-amino-2-methyl-1H-imidazo[4,5-c]quinolin-1-yl)propyl]-2-methylpropanamide] |
| 159.7 to 160.7 °C | Cc1nc2c(N)nc3ccccc3c2n1CCCCNC(=O)C(C)C [Example 202, N-[4-(4-amino-2-methyl-1H-imidazo[4,5-c]quinolin-1-yl)butyl]-2-methylpropanamide] |
| 217 to 219 °C | Nc1nc2ccccc2c2c1ncn2CCCCCNC(=O)c1ccccc1 (as salt: hydrochloride) [Example 10, N^1-[5-(4-Amino-1H-imidazo[4,5-c]quinolin-1-yl)pentyl]benzamide Hydrochloride] |
| 192 to 194 °C (dec.) | Nc1nc2ccccc2c2c1ncn2CCCCNC(=O)c1ccc(OCC(F)(F)F)nc1 [Example 54, N^3-[4-(4-Amino-1H-imidazo[4,5-c]quinolin-1-yl)butyl]-6-(2,2,2-trifluoroethoxy)nicotinamide] |
| 214.5 to 215.2 °C | Nc1nc2ccccc2c2c1ncn2CCCCNC(=O)c1ccnc2ccccc12 [Example 49, N^4-[4-(4-Amino-1H-imidazo[4,5-c]quinolin-1-yl)butyl]-4-quinolinecarboxamide] |
| 158 to 161 °C | CCCCCSc1ncccc1C(=O)NCCCCn1cnc2c(N)nc3ccccc3c21 [Example 51, N^3-[4-(4-Amino-1H-imidazo[4,5-c]quinolin-1-yl)butyl]-2-(pentylsulfanyl)nicotinamide] |
| 90.5 to 91.5 °C | Nc1nc2ccccc2c2c1ncn2CCCCNC(=O)c1ccc(Oc2ccccc2)cc1 [Example 64, N^1-[4-(4-Amino-1H-imidazo[4,5-c]quinolin-1-yl)butyl]-4-phenoxybenzamide] |
| 171 to 175 °C | CCOCc1nc2c(N)nc3ccccc3c2n1CCNC(=O)CCCCC1SCC2NC(=O)NC21 (stereo not drawn) (as salt: trifluoroacetate) [Example 29, N^1-[2-(4-Amino-2-(ethoxymethyl)-1H-imidazo[4,5-c]quinolin-1-yl)ethyl]-5-(2-oxoperhydrothieno[3,4-d]imidazol-4-yl)pentanamide Ditrifluoroacetate] |
| 234.4 to 235.4 °C | Cc1nc2c(N)nc3ccccc3c2n1CCCNC(=O)C1CCCCC1 [Example 205, N-[3-(4-amino-2-methyl-1H-imidazo[4,5-c]quinolin-1-yl)propyl]cyclohexanecarboxamide] |
| 147.7 to 148.8 °C | CCCC(=O)NCCCCn1c(CC)nc2c(N)nc3ccccc3c21 [Example 200, N-[4-(4-amino-2-ethyl-1H-imidazo[4,5-c]quinolin-1-yl)butyl]butanamide] |
| 254 to 256 °C | Cl.Nc1nc2ccccc2c2c1ncn2CCCCNC(=O)c1ccccc1.O (hydrate or solvate) |
| 139 °C (dec.) | Nc1nc2ccccc2c2c1ncn2CCCCNC(=O)c1cn(Cc2ccccc2)c2ccccc12 [Example 42, N^3-[4-(4-Amino-1H-imidazo[4,5-c]quinolin-1-yl)butyl]-1-benzyl-1H-3-indolecarboxamide] |
| 118 °C (dec.) | COCCc1nc2c(N)nc3ccccc3c2n1CCCCNC(=O)c1cc(-c2ccccc2)nc2ccccc12 [Example 50, N^4-[4-(4-Amino-2-(2-methoxyethyl)-1H-imidazo[4,5-c]quinolin-1-yl)butyl]-2-phenyl-4-quinolinecarboxamide] |
| 76 to 78 °C | COCCc1nc2c(N)nc3ccccc3c2n1CCCCNC(=O)c1cncc(C#Cc2ccccc2)c1 [Example 65, N^5-{4-[4-Amino-2-(2-methoxyethyl)-1H-imidazo[4,5-c]quinolin-1-yl]butyl}-5-(2-phenyl-1-ethynyl)nicotinamide] |
| 78.1 to 79.9 °C | COCCc1nc2c(N)nc3ccccc3c2n1CCCCNC(=O)c1ccc2ccccc2n1 [Example 55, N^2-{4-[4-Amino-2-(2-methoxyethyl)-1H-imidazo[4,5-c]quinolin-1-yl]butyl}-2-quinolinecarboxamide] |
| 221.8 to 223.3 °C | CCCC(=O)NCCCn1c(C)nc2c(N)nc3ccccc3c21 [Example 208, N-[3-(4-amino-2-methyl-1H-imidazo[4,5-c]quinolin-1-yl)propyl]butanamide] |
| 95.1 to 97.4 °C | COc1ccc(Cc2nc3c(N)nc4ccccc4c3n2CCCCNC(=O)c2ccc3ccccc3n2)cc1 [Example 61, N^2-{4-[4-Amino-2-(4-methoxybenzyl)-1H-imidazo [4,5-c]quinolin-1-yl]butyl}-2-quinolinecarboxamide] |

| melting point | SMILES |
| --- | --- |
| 169.4 to 170.5 °C | CCCC(=O)NCCCCn1c(C)nc2c(N)nc3ccccc3c21 [Example 203, N-[4-(4-amino-2-methyl-1H-imidazo[4,5-c]quinolin-1-yl)butyl]butanamide] |
| 186.2 to 186.7 °C | Nc1nc2ccccc2c2c1nc(CCCOc1ccccc1)n2CCCNC(=O)c1ccc(Br)cc1 [Example 193, N-{3-[4-amino-2-(3-phenoxypropyl)-1H-imidazo[4,5-c]quinolin-1-yl]propyl}-4-bromobenzamide] |
| 265 to 270 °C | Nc1nc2ccccc2c2c1ncn2CCCNC(=O)c1ccccc1 (as salt: hydrochloride) [Example 11, N^1-[3-(4-Amino-1H-imidazo[4,5-c]quinolin-1-yl)propyl]benzamide Hydrochloride] |
| 54.9 to 55.2 °C | CCCCc1ccc(C(=O)NCCCCn2c(CCOC)nc3c(N)nc4ccccc4c32)nc1 [Example 58, N^2-{4-[4-Amino-2-(2-methoxyethyl)-1H-imidazo[4,5-c]quinolin-1-yl]butyl}-5-butyl-2-pyridinecarboxamide] |
| 76.1 to 79.9 °C | CC(C(=O)NCCCCn1cnc2c(N)nc3ccccc3c21)c1ccc(-c2ccccc2)c(F)c1 (stereo not drawn) [Example 56, N^1-[4-(4-Amino-1H-imidazo[4,5-c]quinolin-1-yl)butyl]-2-(2-fluoro-4-biphenylyl)propanamide] |
| 144 to 148 °C (dec.) | Nc1nc2ccccc2c2c1ncn2CCCCNC(=O)c1ccc(Cl)nc1 [Example 53, N^3-[4-(4-Amino-1H-imidazo[4,5-c]quinolin-1-yl)butyl]-6-chloronicotinamide] |
| 84.5 to 86.1 °C | Nc1nc2ccccc2c2c1nc(-c1ccccc1)n2CCCCNC(=O)c1cccnc1 [Example 66, N^3-[4-(4-Amino-2-phenyl-1H-imidazo[4,5-c]quinolin-1-yl)butyl]nicotinamide] |
| 191.6 to 192.6 °C | Cc1nc2c(N)nc3ccccc3c2n1CCCCNC(=O)C1CCCCC1 [Example 198, N-[4-(4-amino-2-methyl-1H-imidazo[4,5-c]quinolin-1-yl)butyl]cyclohexanecarboxamide] |
| 61 to 63 °C | COCCc1nc2c(N)nc3ccccc3c2n1CCCCNC(=O)c1nccc2ccccc12 [Example 57, N^1-{4-[4-Amino-2-(2-methoxyethyl)-1H-imidazo[4,5-c]quinolin-1-yl]butyl}-1-isoquinolinecarboxamide] |
| 81.1 to 83.9 °C | Nc1nc2ccccc2c2c1nc(-c1ccccc1)n2CCCCNC(=O)c1ccc2ccccc2n1 [Example 67, N^2-[4-(4-Amino-2-phenyl-1H-imidazo[4,5-c]quinolin-1-yl)butyl]-2-quinolinecarboxamide] |
| 225.5 to 227.4 °C | COCCc1nc2c(N)nc3ccccc3c2n1CCCCNC(=O)c1c[nH]c2ccccc12 [Example 59, N^3-{4-[4-Amino-2-(2-methoxyethyl)-1H-imidazo[4,5-c]quinolin-1-yl]butyl}-3-indolecarboxamide] |
| 167.8 to 169.6 °C | COCCc1nc2c(N)nc3c(c2n1CCCNC(=O)c1ccccc1)CCCC3 [Example 195, N-{3-[4-amino-2-(2-methoxyethyl)-6,7,8,9-tetrahydro-1H-imidazo[4,5-c]quinolin-1-yl]propyl}benzamide] |
| 178.6 to 179.5 °C | CCc1nc2c(N)nc3ccccc3c2n1CCCCNC(=O)C1CCCC1 [Example 197, N-[4-(4-amino-2-ethyl-1H-imidazo[4,5-c]quinolin-1-yl)butyl]cyclopentanecarboxamide] |
| 188.6 to 189.5 °C | Nc1nc2ccccc2c2c1ncn2CCCCNC(=O)c1cccnc1 [Example 47, N^3-[4-(4-Amino-1H-imidazo[4,5-c]quinolin-1-yl)butyl]nicotinamide] |
| 155.4 to 156.3 °C | CCc1nc2c(N)nc3ccccc3c2n1CCCCNC(=O)C(C)C [Example 199, N-[4-(4-amino-2-ethyl-1H-imidazo[4,5-c]quinolin-1-yl)butyl]-2-methylpropanamide] |
| 125 to 129 °C | N#Cc1ccc(C(=O)NCCCCn2cnc3c(N)nc4ccccc4c32)cn1 [Example 52, N^3-[4-(4-Amino-1H-imidazo[4,5-c]quinolin-1-yl)butyl]-6-cyanonicotinamide] |
| 213 to 213.7 °C | Nc1nc2ccccc2c2c1ncn2CCCCNC(=O)c1ccncc1 [Example 48, N^4-[4-(4-Amino-1H-imidazo[4,5-c]quinolin-1-yl)butyl]isonicotinamide] |
| 168.6 to 169.8 °C | Cc1nc2c(N)nc3ccccc3c2n1CCCCNC(=O)C1CCCC1 [Example 201, N-[4-(4-amino-2-methyl-1H-imidazo[4,5-c]quinolin-1-yl)butyl]cyclopentanecarboxamide] |
